Measurements taken from patent publication US11466066B2, “Variants of human BMP7 protein” (ELI LILLY AND COMPANY, priority 2017, dated 2022).
Where a chain is given by its changes, count along the chain named. Numbers in names are those of the source. Marks after values point to notes of the source that are not given here.

B1: Human mature BMP7 protein variant F9 (SEQ ID NO: 8): homodimer wherein each monomeric subunit has SEQ ID NO: 8 (Y65G/I86L/F93V/N110G/Y128W), disulfide linked (protein)
chain: STGSKQRSQNRSKTPKNQEALRMANVAENSSSDQRQACKKHELYVSFRDLGWQDWIIAPEGYAAGYCEGECAFPLNSYMNATNHALVQTLVHVINPETVPKPCCAPTQLGAISVLYFDDSSNVILKKWRNMVVRACGCH
modifications: homodimer, disulfide linked
B2: Wild type human mature BMP7 (SEQ ID NO: 2): dimer of two glycosylated, 139 amino acid disulfide-linked proteins of about 35 kDa, SEQ ID NO: 2 (protein, listed as Homo sapiens)
chain: B1 chain with G65Y, L86I, V93F, G110N, W128Y
modifications: disulfide-linked glycosylated homodimer

Key:
[1] = test system: human articular osteoarthritic (OA) chondrocytes; test: Proteoglycan synthesis (35S incorporation); type: cell-based; conditions: 7 days
From the text: Proteoglycan synthesis in human articular osteoarthritic (OA) chondrocytes is an n vitro model for chondrocyte activity. The effect of human mature BMP7 protein variants may also be evaluated on proteoglycan synthesis m human articular OA chondrocytes in vitro and compared to wild type human mature pro-BMP7. The proteoglycan synthesis may be measured using ^35S incorporation. Arthritic human knee cartilage is obtained from donors at surgery. The cartilage pieces may be finely chopped and chondrocytes may be isolated from the associated matrix by enzymatic digestions. The cartilage may be first digested with 1 mg/ml pronase in DMEM/PRF (phenol red free) media with 5% Fe supplemented calf serum (FCS) and 2% penicillin-streptomycin-antimycotic for 60 minutes followed by overnight digestion with 1 mg/ml collagenase II in DMEM/PRF media with 5% FCS) and 2% penicillin-streptomycin-antimycotic at 37° C. The cells may be washed with DMEM/F-12 media and then resuspended in DMEM/F-12 with 5% FCS and counted with a Coulter counter. The cells may be plated at a density of 30,000 cells/well in 96-well collagen coated CytoStar T plate in growth media containing DMEM, 5% FCS. ITS (insulin, transferin, selenium) and 1% penicillin-streptomycin-antimycotic. After 24 hours, the media may be replaced with 100 μl of growth media containing 10 μCi/ml (1 μCi/well) of ^35S and treated with wild type human pro-BMP7 or a human pro-BMP7 protein variants at various doses. Then the cells may be incubated for approximately 7 days at 37° C. with 5% CO2. At the end of the treatment period the media may be removed, replaced with phosphate buffered saline and ^35S incorporation is counted using a Wallac 1450 MicroBeta TriLux Liquid Scintillation Counter & Luminometer.

[2] = Thermal unfolding assay (circular dichroism); type: physicochemical; conditions: CD at 208 nm; 10 mM citrate, 300 mM NaCl, pH 7.4
Experimental: The effect of temperature on the conformational stability of human BMP7 protein variants may be followed by circular dichroism (CD) on a Jasco J-810 instrument equipped with a thermoelectric sample compartment. Briefly stated, 0.2-1.0 mg/mL pro-BMP7 may be formulated in storage buffer (10 mM citrate, 300 mM NaCl, pH 7.4) and loaded into a 0.02 cm path-length CD cuvette. The sample may be heated from 20 to 80° C. at a linear rate of 1° C./minute and the resulting CD signal at 208 nm may be recorded every 0.2° C. using a 1 second signal response time. A non-linear fit to equation 1 may be performed by the program JMP (SAS Institute Inc, Cary, N.C.) to obtain the thermal unfolding mid-point (Tm).
[formula] where, Yu and Yf are fit and represent the Y-intercept of the pre- and post-transition baselines, respectively. Mu and Mf are fit and represent the slope of the pre- and post-transition baselines, respectively. Hm and S are fit and represent enthalpy and entropy, respectively. T is the measured temperature in Kelvin units.

3T3-L1 fibroblasts = test: Alkaline phosphatase stimulation in 3T3-L1 cells; type: cell-based; conditions: 1 μg/ml pro-BMP7, 1 μM ATRA, 48 hours
Experimental: 3T3-L1 fibroblasts and MFc7 mouse renal myofibroblasts may be grown essentially as described in Example 2 above. After 48 hours the cells may be washed with PBS prior to the addition of either DMEM/2% dialyzed FBS or OPTI-MEM/2% dialyzed FBS medium containing control vehicle, 1 μg/ml human proBMP7 protein, 1 μM ATRA or a combination of both human BMP7 protein (1 μg/ml) and ATRA (1 μM) may be added for 48 hours. After treatment the cells may be rinsed with PBS and stored at −80° C. for approximately 20 minutes. The cells may be thawed at 37° C. for 30 minutes and 100 μl of PNPP may be added to every well. The plate may be incubated at 37° C. for 1 hour. The absorbance at 405 nm may be read on a plate reader.

[3] = test system: female CB17SC-M SCID mice; test: Ectopic bone formation model; type: in vivo; conditions: 3 μg/100 μl subcutaneous; CT scan on Day 13
Experimental: Ectopic bone formation (EBF) may be measured in female CB17SC-M SCID mice upon subcutaneous administration of certain human BMP7 protein variants of the present invention compared to wild type human mature BMP7.
Briefly described, the mice may be anesthetized with 3% isoflurane and are injected with 3 μg/100 μl of the human BMP7 protein variant, wild type human mature BMP7 protein or a vehicle control on the back left flank. The back right flank of each mouse may serve as a control (no injection). Vehicle (pH 4.5): 0.5% Sucrose, 2.5% Glycine, 5 mM L-Glutamic Acid, 5 mM NaCl, 0.01% polysorbate 80, and, 0.1% BSA.
EBF may be measured by a CT scan on Day 13 after injection of the human BMP7 protein variant or wild type human mature BMP7 protein.

RAR gamma = RAR gamma protein expression, Western Blot; type: cell-based, mouse; conditions: MFc7 and 3T3-L1 cell lines; 1 μg/mL, 48 hours; Western Blot intensity
Experimental: (§1) 3T3-L1 fibroblasts and MFc7 mouse renal myofibroblasts may be maintained under routine cell culture conditions in DMEM/10% calf serum medium or OPTI-MEM/10% FBS medium, respectively. The cells may be plated in 10 cm tissue culture plates at a seeding density of 500,000 cells/plate. After 48 hours, the cells may be washed with PBS prior to the addition of either DMEM/2% dialyzed FBS or OPTI-MEM/2% dialyzed FBS medium containing 1 μg/mL human BMP7 protein or 1 μg/mL of a human BMP7 protein variant. The cells may be incubated for 48 hours and then rinsed with ice-cold PBS, and then lysed with Protein Extraction Reagent. Then lysates may be centrifuged at 14,000×g for 15 minutes. A Bradford protein assay may be performed to determine the protein concentration of each lysate. Equivalent amounts of protein (for example, 25 μg) may be resolved by SDS-PAGE and then transferred to nitrocellulose membranes for Western Blot analysis. The membranes may be probed with an anti-RAR alpha antibody and/or an anti-RAR gamma antibody.

RAR alpha = RAR alpha protein expression, Western Blot; type: cell-based, mouse; conditions: MFc7 and 3T3-L1 cell lines; 1 μg/mL, 48 hours; Western Blot intensity
Experimental: as §1

Molecule	Proteoglycan Synthesis (35S incorporation) ([1]; Treatment (ng) 0.1)	Proteoglycan Synthesis (35S incorporation) ([1]; Treatment (ng) 0.4)	Proteoglycan Synthesis (35S incorporation) ([1]; Treatment (ng) 1.2)	Proteoglycan Synthesis (35S incorporation) ([1]; Treatment (ng) 3.7)	Proteoglycan Synthesis (35S incorporation) ([1]; Treatment (ng) 11)	Proteoglycan Synthesis (35S incorporation) ([1]; Treatment (ng) 33)	Proteoglycan Synthesis (35S incorporation) ([1]; Treatment (ng) 100)	Proteoglycan Synthesis (35S incorporation) ([1]; Treatment (ng) 300)	thermal unfolding mid-point (Tm) [2]	fold change in alkaline phosphatase stimulation relative to control vehicle treated cells (3T3-L1 fibroblasts)	Ectopic Bone Formation Volume [3]	RAR gamma protein expression (RAR gamma)	RAR alpha protein expression (RAR alpha)
Wild type human pro-BMP7: homodimers of wild type human mature BMP7 in a non-covalent complex with wild type human pro-domain [reference compound]	679 ± 120 CPMs	724 ± 120 CPMs	679 ± 120 CPMs	666 ± 130 CPMs	723 ± 72 CPMs	799 ± 65 CPMs	1500 ± 309 CPMs	3325 ± 237^a CPMs	61 °C	1.2 fold			
B1											7 mm^3	stimulated	stimulated
B2											78 mm^3		
